Entries after “also recorded” stand apart in the source; their conditions may differ.
Tests used:
mESC lines E14 and R1 = experiment: Whole gene expression profiling (microarray) of mESC lines E14 and R1; type: cell-based, mouse; conditions: APH plus inhibitor
Description: The quality of total RNA was first assessed using an Agilent Bioanalyzer 2100 (Agilent Technologies, Palo Alto, Calif.). Biotin-labeled cDNA targets were synthesized starting from 150 ng of total RNA. Double stranded cDNA synthesis and related cRNA was performed with GeneChip® WT Plus Kit (Affymetrix, Santa Clara, Calif.). With the same kit was synthesized the sense strand cDNA before to be fragmented and labeled. […] Each eukaryotic GeneChip® probe array contains probe sets for several B. subtilis genes that are absent in the samples analyzed (lys, phe, thr, and dap). This Poly-A RNA Control Kit contains in vitro synthesized, polyadenylated transcripts for these B. subtilis genes that are pre-mixed at staggered concentrations to allow GeneChip® probe array users to assess the overall success of the assay.
Hybridization was performed using the GeneAtlas™ Hybridization, Wash and Stain Kit. […] Targets were diluted in hybridization buffer at a concentration of 0.05 μg/ul, denatured at 99° C. for 5 minutes, incubated at 45° C. for 5 minutes and centrifuged at 5,000 rpm for 1 minute. The Array Strip is then moved to a hybridization tray, which contains the hybridization cocktails. A single Gene 2.1 PEG Array Strip is hybridized with four different biotin-labeled targets. Hybridizations were performed for 20 hours at 48° C. in the GeneAtlas™ Hybridization Station. The Array Strips were washed and stained in the GeneAtlas™ Personal Fluidics Station. At the end of this procedure the array strips were placed into the imaging tray, which contains the Array Holding buffer.
The array strips were imaged using the GeneAtlas™ Imaging Station. Affymetrix GeneAtlas™ Command Console software was used to acquire the Array Strip images and […].
The CAMERA gene set enrichment p-values were calculated using the limma package and the camera function 30.
In the GSVA based enrichment analysis, we used the MsigDB gene sets, and transformed the individual gene expression values into gene set expression values with the GSVA package 32. We calculated the gene set differential expression as in the gene level differential expression analysis, only skipping the RMA normalization step.

pZscan4-Emerald ESCs = experiment: FACS analysis of Zscan4-Emerald ESCs (Emerald-GFP positive cells); type: cell-based, mouse
Description: (§1) All treatments including APH, HU, UV, ATRi, ATMi and Chk1i were added in to fresh ESC medium and the cells were kept in 37° C. and 3% 02 tension for overnight (16-17 hrs) unless mentioned in each particular result section. APH was used at various concentrations ranging from 0.3 uM to 6 uM that is mentioned in each experiment in order to induce mild to acute replication stress response. Similarly, HU was used at 0.1 mM-3 mM. ATMi (KU-55933) and ATRi (VE 822) were used at the concentration of 10 uM and 1 uM respectively. Moreover, Chk1i (UCN-01) at the concentration of 100 nM was used. UV radiation was performed at the dosage ranging from 2 to 10 J/m2. For induction of ETAA1-AAD expression, Dox was used at the concentration of 1 μg/mL for 48 hrs.
ESCs were fixed and permeabilized using Cytoperm/Cytofix kit (BD Biosciences), and subsequently stained for one hour at room temperature with Alexa Fluor® 647 anti-H2AX-Phosphorylated (Ser139) antibody (Biolegend) or P-CHK1-PE conjugated antibody (cell signaling 12268). Cells were washed and acquired on a FACS Calibur instrument or Attune NxT (Thermo Fisher Scientific). For Emerald-GFP acquisition, cells were trypsinized, collected and subsequently acquired without fixation. Cell cycle profiles were acquired after incubation with DAPI (4′,6-diamidino-2-phenylindole) overnight. For Caspase3 FACS analysis after fixation and permeabilization, Cleaved Caspase3 antibody were used for one hr at RT followed by washes and one hr incubation in donkey anti rabbit secondary antibody. […]

[1] = test system: 2C-like genes (Zscan4, MuERV-L/MERVL, Dux) in ESCs (E14, R1); experiment: qPCR for 2C-like specific genes in ESCs; type: cell-based, mouse; conditions: ESC lines E14 and R1; time and dosage-dependent
Description: as §1
RNA was extracted using RNeasy mini kit (QIAGEN), quantified by NanoDrop spectrophotometer and cDNA was prepared from 2 μg total DNA-depleted RNA using SuperScript™ III reverse transcriptase kit (Invitrogen cat #18080-093) following manufacturer's instructions. qPCR assay performed based on standard protocol using 10× SsoFast™ EvaGreen® Supermix or later 1× LightCycler 480 SYBR Green I Master (Roche, 04707516001), 0.5 μM primer mix and 5 ng of cDNA. GAPDH was used as internal control to normalise the qPCR data following ΔΔCt method, 10 μM primer mix and a total amount of cDNA corresponding to 5 ng of starting RNA for each reaction.

Zscan4 = conditions: previous work; cited from earlier work

Cn1c(=O)c2c(ncn2C)n(C)c1=O [Caffeine]
two placenta-related gene categories upon ATR inhibition (mESC lines E14 and R1): robustly suppressed

NC(=O)NO [HU, hydroxyurea]
number of Emerald-GFP positive (Em+) ESCs (pZscan4-Emerald ESCs; RS inducing agents, dose-dependent, qPCR and FACS): significant increase | expression of Zscan4 and MuERV-L (QPCR and FACS) [1]: significantly upregulated

O=c1cc(-c2cccc3c2Sc2ccccc2S3)oc(N2CCOCC2)c1 [KU-55933]
elevated expression of 2C-like specific genes (Zscan4, MERVL) upon APH and HU treatment (pZscan4-Emerald ESCs; inhibitor added under replication stress, flow cytometry and immunoblot, listed as ATM inhibitor): could not alter | number of Zscan4-Emerald positive cells (pZscan4-Emerald ESCs; normal culture condition, ATRi 1 uM, ATMi 10 uM): did not change; also recorded: did not significantly reduce

COC(=O)Nc1nc2ccc(C(=O)c3cccs3)cc2[nH]1 [nocodazole]
Zscan4 expression upon G2/M arrest (Zscan4): not sufficient to trigger Zscan4 expression

Source: patent US20200131473A1, “METHOD OF GENERATING 2 CELL-LIKE STEM CELLS” (IFOM FONDAZIONE ISTITUTO FIRC DI ONCOLOGIA MOLECOLARE, priority 2017, published 2020)
